Reference: the kinase profiling compilation of Christmann-Franck et al. (2016)
Values joined by “and” are separate entries in the source; they are usually repeats but may differ in a detail not shown here. Equal entries are not always repeated.

Experiments:
Assay in all cases: radiometric filter-binding kinase assay, Kinase HotSpot
Details in all cases: compound 0.5 µM; ATP 10 µM
[1] = target: MAPK12 (human) (UniProt P53778)
[2] = target: AURKA (human) (UniProt O14965)
[3] = target: STK3 (human) (UniProt Q13188)
[4] = target: DAPK3 (human) (UniProt O43293)
[5] = target: MARK2 (human) (UniProt Q7KZI7)
[6] = target: BTK (human) (UniProt Q06187)
[7] = target: BMX (human) (UniProt P51813)
[8] = target: FGFR2 (human) (UniProt P21802)
[9] = target: GRK7 (human) (UniProt Q8WTQ7)
[10] = target: NEK3 (human) (UniProt P51956)
Sequence of NEK3 (human) (P51956 whole entry, looked up): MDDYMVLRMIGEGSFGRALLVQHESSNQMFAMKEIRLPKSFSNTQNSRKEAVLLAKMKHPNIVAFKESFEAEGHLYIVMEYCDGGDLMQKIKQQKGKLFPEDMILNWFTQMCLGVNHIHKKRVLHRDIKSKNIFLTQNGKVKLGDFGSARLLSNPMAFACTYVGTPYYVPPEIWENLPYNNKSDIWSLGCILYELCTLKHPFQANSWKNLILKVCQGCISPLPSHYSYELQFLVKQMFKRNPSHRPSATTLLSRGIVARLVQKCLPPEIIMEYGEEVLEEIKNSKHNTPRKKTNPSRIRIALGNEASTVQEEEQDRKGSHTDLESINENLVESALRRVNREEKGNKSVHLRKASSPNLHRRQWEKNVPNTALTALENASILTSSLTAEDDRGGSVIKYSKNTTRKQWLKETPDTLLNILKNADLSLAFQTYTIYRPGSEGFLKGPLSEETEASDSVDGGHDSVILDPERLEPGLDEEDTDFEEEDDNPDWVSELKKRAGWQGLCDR

[11] = target: PRKG1 (human) (UniProt Q13976)
[12] = target: EPHA5 (human) (UniProt P54756)
[13] = target: EPHB4 (human) (UniProt P54760)
[14] = target: GSK3B (human) (UniProt P49841)
[15] = target: CHEK2 (human) (UniProt O96017)
[16] = target: SGK2 (human) (UniProt Q9HBY8)
[17] = target: DMPK (human) (UniProt Q09013)
[18] = target: CSNK2A1 (human) (UniProt P68400)
Sequence of CSNK2A1 (human) (P68400 whole entry, looked up): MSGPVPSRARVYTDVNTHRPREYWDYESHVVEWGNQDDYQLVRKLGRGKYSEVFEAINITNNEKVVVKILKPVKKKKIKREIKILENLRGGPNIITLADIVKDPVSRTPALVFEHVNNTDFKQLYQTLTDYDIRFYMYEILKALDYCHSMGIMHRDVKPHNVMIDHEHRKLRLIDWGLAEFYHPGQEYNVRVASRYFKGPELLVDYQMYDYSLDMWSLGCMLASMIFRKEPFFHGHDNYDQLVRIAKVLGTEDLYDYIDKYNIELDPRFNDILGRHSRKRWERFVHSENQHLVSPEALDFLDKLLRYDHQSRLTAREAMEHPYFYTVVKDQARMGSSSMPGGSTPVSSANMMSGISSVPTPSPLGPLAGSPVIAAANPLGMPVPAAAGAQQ

[19] = target: PLK1 (human) (UniProt P53350)
[20] = target: JAK3 JH1 JH2 (human) (UniProt P52333)
[21] = target: LYN (human) (UniProt P07948)
[22] = target: CDK6 CCND3 (human) (UniProt P30281+Q00534)
[23] = target: PKN1 (human) (UniProt Q16512)
[24] = target: SRC (human) (UniProt P12931)
[25] = target: STK10 (human) (UniProt O94804)
Sequence of STK10 (human) (O94804 whole entry, looked up): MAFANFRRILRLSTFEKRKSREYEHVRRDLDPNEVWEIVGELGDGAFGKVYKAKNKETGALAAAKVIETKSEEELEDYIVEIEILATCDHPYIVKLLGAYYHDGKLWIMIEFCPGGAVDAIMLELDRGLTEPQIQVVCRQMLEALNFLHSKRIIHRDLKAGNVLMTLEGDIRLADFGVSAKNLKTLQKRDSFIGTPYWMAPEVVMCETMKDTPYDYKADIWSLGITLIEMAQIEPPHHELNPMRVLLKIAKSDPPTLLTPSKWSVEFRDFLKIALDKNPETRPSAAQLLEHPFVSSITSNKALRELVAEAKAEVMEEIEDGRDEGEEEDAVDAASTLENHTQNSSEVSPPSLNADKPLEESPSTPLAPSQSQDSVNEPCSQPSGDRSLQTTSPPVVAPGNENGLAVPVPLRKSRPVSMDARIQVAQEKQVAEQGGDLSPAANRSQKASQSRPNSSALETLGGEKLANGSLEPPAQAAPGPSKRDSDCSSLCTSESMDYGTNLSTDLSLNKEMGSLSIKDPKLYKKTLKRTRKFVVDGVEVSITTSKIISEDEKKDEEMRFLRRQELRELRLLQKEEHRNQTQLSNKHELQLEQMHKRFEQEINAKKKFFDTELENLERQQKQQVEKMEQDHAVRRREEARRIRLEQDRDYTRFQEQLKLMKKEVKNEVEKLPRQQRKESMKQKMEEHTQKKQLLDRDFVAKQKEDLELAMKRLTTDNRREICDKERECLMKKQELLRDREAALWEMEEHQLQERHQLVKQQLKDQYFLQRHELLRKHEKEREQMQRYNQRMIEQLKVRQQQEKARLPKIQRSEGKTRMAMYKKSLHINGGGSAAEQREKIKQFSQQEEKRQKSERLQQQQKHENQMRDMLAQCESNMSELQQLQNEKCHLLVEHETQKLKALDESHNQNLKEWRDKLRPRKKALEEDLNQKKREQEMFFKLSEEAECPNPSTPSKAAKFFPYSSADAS

[26] = target: PNCK (human) (UniProt Q6P2M8)
[27] = target: CSK (human) (UniProt P41240)
[28] = target: HIPK1 (human) (UniProt Q86Z02)
[29] = target: GRK4 (human) (UniProt P32298)
[30] = target: DYRK2 (human) (UniProt Q92630)
[31] = target: RPS6KA4 KD2 (human) (UniProt O75676)
Sequence of RPS6KA4 KD2 (human) (O75676 whole entry, looked up): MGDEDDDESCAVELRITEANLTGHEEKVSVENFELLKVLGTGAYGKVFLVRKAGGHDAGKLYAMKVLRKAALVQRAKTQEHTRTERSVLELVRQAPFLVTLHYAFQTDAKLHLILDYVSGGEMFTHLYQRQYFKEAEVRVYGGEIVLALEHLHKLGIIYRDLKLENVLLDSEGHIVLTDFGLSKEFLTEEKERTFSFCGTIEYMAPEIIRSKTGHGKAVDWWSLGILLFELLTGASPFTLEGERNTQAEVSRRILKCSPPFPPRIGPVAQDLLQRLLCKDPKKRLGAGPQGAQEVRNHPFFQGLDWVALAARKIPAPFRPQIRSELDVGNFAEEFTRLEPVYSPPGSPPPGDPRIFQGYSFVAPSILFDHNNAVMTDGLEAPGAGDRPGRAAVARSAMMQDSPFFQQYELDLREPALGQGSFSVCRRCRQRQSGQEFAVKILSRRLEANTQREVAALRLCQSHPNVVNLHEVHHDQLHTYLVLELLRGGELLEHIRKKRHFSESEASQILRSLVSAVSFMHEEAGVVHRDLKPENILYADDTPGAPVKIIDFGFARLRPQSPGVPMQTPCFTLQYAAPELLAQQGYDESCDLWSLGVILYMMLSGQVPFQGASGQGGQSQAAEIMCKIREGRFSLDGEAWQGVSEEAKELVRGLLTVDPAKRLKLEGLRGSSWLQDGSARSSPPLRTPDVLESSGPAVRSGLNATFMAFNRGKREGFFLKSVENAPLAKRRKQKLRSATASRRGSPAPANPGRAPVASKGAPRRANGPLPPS

[32] = target: MST1R (human) (UniProt Q04912)
[33] = target: MYLK (human) (UniProt Q15746)
[34] = target: MAP3K8 (human) (UniProt P41279)
[35] = target: MLTK (human) (UniProt Q9NYL2)
[36] = target: FGFR4 (human) (UniProt P22455)
Sequence of FGFR4 (human) (P22455 whole entry, looked up): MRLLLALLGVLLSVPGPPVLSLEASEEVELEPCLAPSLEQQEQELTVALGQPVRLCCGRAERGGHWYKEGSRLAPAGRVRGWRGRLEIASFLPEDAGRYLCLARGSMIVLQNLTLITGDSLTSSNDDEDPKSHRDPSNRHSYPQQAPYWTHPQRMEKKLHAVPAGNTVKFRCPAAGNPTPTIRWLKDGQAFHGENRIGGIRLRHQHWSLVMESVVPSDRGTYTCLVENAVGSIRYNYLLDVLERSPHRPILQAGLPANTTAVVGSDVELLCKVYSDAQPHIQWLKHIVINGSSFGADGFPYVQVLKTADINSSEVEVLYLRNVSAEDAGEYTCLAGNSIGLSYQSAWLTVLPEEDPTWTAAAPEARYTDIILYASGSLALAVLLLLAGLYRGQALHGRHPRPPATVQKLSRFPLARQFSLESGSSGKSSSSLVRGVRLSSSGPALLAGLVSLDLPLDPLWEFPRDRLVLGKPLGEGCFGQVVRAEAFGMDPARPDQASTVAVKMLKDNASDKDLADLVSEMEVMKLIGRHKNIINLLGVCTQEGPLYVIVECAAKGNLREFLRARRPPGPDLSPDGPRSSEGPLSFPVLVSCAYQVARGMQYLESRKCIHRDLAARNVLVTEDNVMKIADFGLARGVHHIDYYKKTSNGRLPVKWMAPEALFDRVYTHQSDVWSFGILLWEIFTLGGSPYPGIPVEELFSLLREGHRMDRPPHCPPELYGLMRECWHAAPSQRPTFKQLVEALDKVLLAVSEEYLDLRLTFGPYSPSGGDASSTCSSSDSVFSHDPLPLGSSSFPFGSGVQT

[37] = target: FER (human) (UniProt P16591)
Sequence of FER (human) (P16591 whole entry, looked up): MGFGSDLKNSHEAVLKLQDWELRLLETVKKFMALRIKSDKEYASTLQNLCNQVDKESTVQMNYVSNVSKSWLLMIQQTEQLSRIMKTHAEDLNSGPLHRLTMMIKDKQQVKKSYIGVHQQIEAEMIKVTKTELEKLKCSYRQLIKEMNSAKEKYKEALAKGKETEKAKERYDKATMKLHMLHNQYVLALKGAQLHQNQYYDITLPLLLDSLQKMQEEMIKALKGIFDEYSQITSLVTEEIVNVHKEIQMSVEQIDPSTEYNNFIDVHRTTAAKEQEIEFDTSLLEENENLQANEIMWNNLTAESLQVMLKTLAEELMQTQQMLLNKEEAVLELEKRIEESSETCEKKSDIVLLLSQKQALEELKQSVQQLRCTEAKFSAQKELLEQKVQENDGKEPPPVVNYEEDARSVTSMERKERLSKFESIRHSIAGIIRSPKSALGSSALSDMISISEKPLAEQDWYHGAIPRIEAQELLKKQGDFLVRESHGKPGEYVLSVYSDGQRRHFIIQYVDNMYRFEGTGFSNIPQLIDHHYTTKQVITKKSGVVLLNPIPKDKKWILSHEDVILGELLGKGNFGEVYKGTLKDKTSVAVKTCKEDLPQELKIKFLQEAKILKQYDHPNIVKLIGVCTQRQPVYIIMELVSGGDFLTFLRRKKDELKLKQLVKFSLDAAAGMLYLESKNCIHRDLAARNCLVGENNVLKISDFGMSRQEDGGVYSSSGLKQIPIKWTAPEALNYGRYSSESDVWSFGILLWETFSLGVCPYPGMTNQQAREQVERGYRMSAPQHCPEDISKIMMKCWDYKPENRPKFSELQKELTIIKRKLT

[38] = target: IRAK4 (human) (UniProt Q9NWZ3)
Sequence of IRAK4 (human) (Q9NWZ3 whole entry, looked up): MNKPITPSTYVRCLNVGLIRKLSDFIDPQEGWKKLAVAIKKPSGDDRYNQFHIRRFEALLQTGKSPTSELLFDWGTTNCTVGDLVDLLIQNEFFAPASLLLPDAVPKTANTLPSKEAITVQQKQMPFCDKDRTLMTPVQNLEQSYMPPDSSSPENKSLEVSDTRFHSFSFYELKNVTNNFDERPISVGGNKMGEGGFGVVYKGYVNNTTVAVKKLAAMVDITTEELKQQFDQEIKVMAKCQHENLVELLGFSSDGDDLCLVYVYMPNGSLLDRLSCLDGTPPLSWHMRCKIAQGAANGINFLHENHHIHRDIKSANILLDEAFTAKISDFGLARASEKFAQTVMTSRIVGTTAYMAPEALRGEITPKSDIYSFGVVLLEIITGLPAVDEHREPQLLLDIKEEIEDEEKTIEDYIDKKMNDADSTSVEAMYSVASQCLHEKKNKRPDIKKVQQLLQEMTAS

[39] = target: TYRO3 (human) (UniProt Q06418)
[40] = target: RPS6KA2 KD1 KD2 (human) (UniProt Q15349)

Row | SMILES | residual activity [1] | residual activity [2] | residual activity [3] | residual activity [4] | residual activity [5] | residual activity [6] | residual activity [7] | residual activity [8] | residual activity [9] | residual activity [10] | residual activity [11] | residual activity [12] | residual activity [13] | residual activity [14] | residual activity [15] | residual activity [16] | residual activity [17] | residual activity [18] | residual activity [19] | residual activity [20] | further results
1 | O=c1cc(N2CCOCC2)oc2c1ccc1ccccc12 | 97.4% | 98% | 99.1% | 94.6% | 101% | 112% | 92.7% | 107% | 107% | 111% | 84.5% and 94.6% | 110% | 96.3% | 124% | 104% | 102% | 105% | 70.9% | 68.4% | 103% | residual activity [21]: 102% and 104%; residual activity [22]: 95.1%; residual activity [23]: 106%; residual activity [24]: 99.3%; residual activity [25]: 96.9%; residual activity [26]: 97.4%; residual activity [27]: 101%; residual activity [28]: 102%; residual activity [29]: 104%; residual activity [30]: 88.9%; residual activity [31]: 99.4%; residual activity [32]: 103%; residual activity [33]: 92.3%; residual activity [34]: 98.3%; residual activity [35]: 98%; residual activity [36]: 108%; residual activity [37]: 91.2%; residual activity [38]: 122%; residual activity [39]: 97.3%; residual activity [40]: 98.8%
2 | c1ccc(-c2n[nH]c3c2oc2ccccc23)cc1 | 100% | 103% | 49.6% | 91.5% | 92.9% | 96.4% | 106% | 97% | 102% | 98.9% | 102% and 103% | 92.1% | 112% | 105% | 101% | 93% | 99.5% | 87.2% | 106% | 132% | residual activity [21]: 102% and 108%; residual activity [22]: 91.6%; residual activity [23]: 94.1%; residual activity [24]: 81.3%; residual activity [25]: 108%; residual activity [26]: 98.6%; residual activity [27]: 92.6%; residual activity [28]: 103%; residual activity [29]: 110%; residual activity [30]: 95.4%; residual activity [31]: 90.2%; residual activity [32]: 87.4%; residual activity [33]: 86.1%; residual activity [34]: 105%; residual activity [35]: 96.2%; residual activity [36]: 85.5%; residual activity [37]: 103%; residual activity [38]: 92.7%; residual activity [39]: 87.6%; residual activity [40]: 77.5%
3 | COc1ccc2c(c[n+](C)c3c4cc5c(cc4ccc23)OCO5)c1OC | 100% | 107% | 102% | 102% | 95% | 98.6% | 104% | 101% | 101% | 95.1% | 97.6% and 98.8% | 94.6% | 91.7% | 88.3% | 96.5% | 99.1% | 100% | 83.3% | 93.6% | 101% | residual activity [21]: 95.4% and 100%; residual activity [22]: 94.6%; residual activity [23]: 101%; residual activity [24]: 91.5%; residual activity [25]: 92.7%; residual activity [26]: 103%; residual activity [27]: 106%; residual activity [28]: 100%; residual activity [29]: 94.8%; residual activity [30]: 94.5%; residual activity [31]: 88.3%; residual activity [32]: 97.8%; residual activity [33]: 100%; residual activity [34]: 91.3%; residual activity [35]: 94.7%; residual activity [36]: 90.1%; residual activity [37]: 89.8%; residual activity [38]: 116%; residual activity [39]: 95.7%; residual activity [40]: 86.1%
